Values quoted from earlier work, collected in patent US20260284157A1, “POWDER COMPOSITION COMPRISING A HAEMOSTATIC AGENT” (WOMED, priority 2023, published 2026).

Conditions: certificate of analysis of the product (Sigma Aldrich)

Substance: Thrombin
- activity of the protein: > 400 NIH units/mg protein
